Values of other authors, collected in patent publication US20210154215A1, “Antifungal Cuticle Oil Composition” (Zenvision Pharma LLP, priority 2018, published 2021).

SMILES | Solubility in ethanol | Solubility in propylene glycol (propylene glycol) | Solubility in water | Solubility in methanol (methanol) | Solubility in methylene chloride (methylene chloride)
OB1OCc2cc(F)ccc21 [Tavaborole, 5-fluoro-1,3-dihydro-1-hydroxy-2,1-benzoxaborole] | freely soluble | freely soluble | slightly soluble |  | 
C=C1CCN([C@H](C)[C@](O)(Cn2cncn2)c2ccc(F)cc2F)CC1 [Efinaconazole, (2R,3R)-2-(2,4-difluorophenyl)-3-(4-methylenepiperidin-1yl)-1-(1H-1,2,4-triazol-1-yl)butan-2ol] |  |  | practically insoluble |  | 
CN(C/C=C/C#CC(C)(C)C)Cc1cccc2ccccc12.Cl [Terbinafine hydrochloride, (E)-N-(6,6-dimethyl-2-hepten-4-ynyl)-N-methyl-1-naphthalenemethanamine hydrochloride] | soluble |  | slightly soluble | freely soluble | freely soluble
